The values that follow come from patent publication US20120252773A1, “Method and composition for inhibiting cell proliferation and angiogenesis” (priority 2005, published 2012).

For assay [1], the system named is HIF-1α protein in MDA-MB-231 human breast carcinoma cells. Put plainly: HIF-1α protein expression by immunoblotting, MDA-MB-231 cells. It is filed as cell-based. The following applies: MDA-MB-231, normoxic and anoxic. The method, then: Hypoxia experiments were performed in either of two ways. To produce a very low ambient oxygen concentration (effectively anoxia), we used a protocol in which cells were incubated in a 5% CO2-air atmosphere at 37° C. overnight and then placed in aluminum gas-exchange chambers maintained at 37° C. (Laderoute K R et al. Mol Cell Biol 22: 2515-2523, (2002); Laderoute K R et al. Mol Cell Biol 24: 4128-4137, (2004)). The chambers containing the cells were then placed in a 37° C. circulating water bath and the original atmosphere was repeatedly exchanged with 5% CO2-95% N2 using a manifold equipped with a vacuum pump and a gas cylinder. Atmospheric oxygen partial pressure (pO2) values of less than or equal to 0.01% (relative to air at pO2 of about 21%) can be achieved inside the chambers using this system. Following various hypoxic exposures, the chambers were opened an anaerobic glove box (Bactron X, Sheldon Manufacturing Inc., Cornelius, Oreg.; attached to a cylinder containing 5% CO2-95% N2) to prepare cell lysates without significant reoxygenation. All manipulations of hypoxic cells were performed in the anaerobic glove box. Atmospheric oxygen levels in both the chambers and the glove box have been measured and calibrated using a polarographic oxygen electrode (Oxygen Sensors, Inc., Norristown, Pa.). […]
We used immunoblotting to evaluate the experiments. […] After spinning at 9,000×g for 5 min at 4° C., the protein concentrations of the supernatants were determined by using a bicinchoninic acid assay (Pierce Biotechnology). […] Primary antibody binding was detected and visualized by using the ECL Plus Western Blotting Detection System (Amersham Pharmacia Biotech) according to the supplier's instructions. HIF-1α protein was detected by using an anti-HIF-1α monoclonal antibody (Novus Biologicals, Cat. No. NB100-123; diluted 1:500) and a horseradish peroxidase-conjugated anti-mouse IgG secondary antibody (Santa Cruz Biotechnology, Cat. No. sc-2062; diluted 1:20,000). […]

The test system of a further assay is DU-145 cells. In words: Cell cycle analysis by flow cytometry in DU-145 cells. The following applies: DU-145, 10 μM. Type of assay: cell-based, human. The method, then: DU-145 cells were treated with 10 μM of (2) for 6, 24, 48, 72, or 96 h. At the end of each time period, cells were hypotonically lysed in DNA staining solution (0.5 mg/ml propidium iodide, 0.1% sodium citrate, and 0.05% Triton X-100). The stained cells were analyzed by flow cytometry (FACS) using software provided by Phoenix Flow System.
On the technique in general: Flow cytometry measures light scatter and fluorescence of single cells or particles in a stream.

For assay [2], the system named is mouse transformed fibroblast cell line (L929). Put plainly: Cell growth inhibition, MTT, 7 days, L929. It is filed as cell-based. The settings on record: L929, 7 days, compared with human cancer cell lines. The method, then: To measure the inhibitory activity of (2) on growth of HDMVEC cells (Clonetics, San Diego, Calif.), 2,000 cells were seeded in each well of a 96-well plate in […] of EGM medium (Clonetics) supplemented with 5% fetal bovine serum (Sigma). The plate was incubated at 37° C. in a tissue culture incubator for 24 h, and then various concentrations of (2) dissolved in EGM were added to each well in 5-10 μl aliquots. Four wells were used for each concentration. Medium in each well was renewed with fresh test solution added every other day. After 7 days of culture, the viable cells were measured using reagents from an MTT kit (Promega Corporation, Madison, Wis.), using instructions provided by the supplier. The number of viable cells in treated wells relative to those in control wells gave the percentage of inhibition.
Compound (2) was evaluated in several different human cancer cell lines for its effects on cell growth. The human cancer cell lines used (ATCC) were A549 lung cancer cells, U-87 brain cancer cells, SKOV-3 ovarian cancer cells, PC-3 non-androgen dependent prostate cancer cells, and MDA MB-231 estrogen-independent breast cancer cells. Human umbilical vein endothelial cells (HUVEC) and a mouse transformed fibroblast cell line (L929) were also included in the assay for comparison. […]

In the case of `C[C@@H]1Cc2cc(O)ccc2C2CCC3(C)/C(=C/COCCN(C)C)CCC3C21` (stereo partly drawn) [Compound (2), (E)-3-Hydroxy-7α-methyl-21-[(2-dimethylamino)ethoxy]-19-norpregna-1,3,5(10),17(20)-tetraene], the HIF-1α protein expression result in assay [1] is recorded as “potent inhibitor”. Moreover, the “more cells arrested in phase G1 compared with untreated control” value in the assay on DU-145 cells is given as “about 30%”. In assay [2], the “effect on growth of L929 mouse fibroblast cells” value is “much less”.
